Patent publication US7456164B2, “3- or 4-monosubtituted phenol and thiophenol derivatives useful as H3 ligands” (Pfizer, Inc, priority 2004, dated 2008)

Target: T1, human histamine H3 receptor (Homo sapiens, UniProt Q9Y5N1)
T1 construct: expressed in transfected cells
Assay: H3 cell based functional assay (cAMP, β-lactamase reporter gene)
Conditions: not given
Protocol: Compounds were evaluated using a cell based functional assay measuring cAMP through β-lactamase reporter gene activity. A stable cell line was generated from HEK-293 cells expressing a CRE β-lactamase reporter gene and transfected with human histamine H3 receptor cDNA. Cells were seeded at a density of 500,000 cells/ml, and grown overnight in MEM (Invitrogen) supplemented with 1% dialysed FBS (Sigma), 2 mM glutamine (Sigma), 1 mM sodium pyruvate (Sigma), 0.1 mM non essential amino acids (Invitrogen) and 25 mM HEPES (Sigma) in poly D lysine coated 384 well plates (BD Biosciences). […] Cells were incubated for 15 minutes plus/minus compound and their ability to permit 10 μM forskolin-stimulated cAMP synthesis in the presence of 1 nM imetit was measured as described above.

T1 sequence (Q9Y5N1 whole entry): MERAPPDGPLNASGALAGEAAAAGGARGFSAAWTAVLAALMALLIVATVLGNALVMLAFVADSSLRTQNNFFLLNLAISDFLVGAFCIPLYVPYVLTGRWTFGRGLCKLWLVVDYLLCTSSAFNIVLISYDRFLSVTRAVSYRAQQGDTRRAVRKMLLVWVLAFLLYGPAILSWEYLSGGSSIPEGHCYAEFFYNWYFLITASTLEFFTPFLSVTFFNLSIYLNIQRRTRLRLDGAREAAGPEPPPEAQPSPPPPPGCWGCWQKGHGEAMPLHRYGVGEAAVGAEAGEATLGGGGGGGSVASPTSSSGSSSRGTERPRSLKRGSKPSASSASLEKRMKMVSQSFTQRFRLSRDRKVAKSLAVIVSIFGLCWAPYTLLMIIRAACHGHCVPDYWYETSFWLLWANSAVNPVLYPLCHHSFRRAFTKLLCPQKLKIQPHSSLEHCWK

| Compound | Ki [nM] |
| --- | --- |
| CC(C)N1CCC(Oc2ccc(C3(CNc4ccnnc4)CCOCC3)cc2)CC1 [Example 267, N-[(4-{4-[(1-isopropylpiperidin-4-yl)oxy]phenyl}tetrahydro-2H-pyran-4-yl)methyl]pyridazin-4-amine] | 5.8 |

Same assay, conditions: functional Ki from IC50 by Cheng-Prussoff; HEK-293 CRE β-lactamase cells, 10 μM forskolin, 1 nM imetit; read-out: Ki (H3 cell based assay - nM)

| Compound | Ki [nM] |
| --- | --- |
| CN(C)CC1(c2ccc(OCCCN3CCCC3)cc2)CCOCC1 [Example 29, Dimethyl-{4-[4-(3-pyrrolidin-1-ylpropoxy)phenyl]-tetrahydro-pyran-4-ylmethyl}amine] | 0.4 |
| CC(C)N1CCC(Oc2ccc(C3(C(=O)N(C)C)CCOCC3)cc2)CC1 [Example 133, 4-{4-[(1-isopropylpiperidin-4-yl)oxy]phenyl}-N,N-dimethyltetrahydro-2H-pyran-4-carboxamide] | 12.4 |
| Cc1csc(C2(c3ccc(OCCCN4CCCC4)cc3)CCOCC2)n1 [Example 136, 4-methyl-2-[4-(4-(3-pyrrolidin-1-ylpropoxy)phenyl)tetrahydro-2H-pyran-4-yl]-1,3-thiazole] | 3.9 |
| CN(C)C(=O)C1(c2ccc(OC3CCN(C4CCC4)CC3)cc2)CCOCC1 [Example 155, 4-{4-[(1-cyclobutylpiperidin-4-yl)oxy]phenyl}-N,N-dimethyltetrahydro-2H-pyran-4-carboxamide] | 1 |
| CNC(=O)C1(c2ccc(OC3CCN(C4CCC4)CC3)cc2)CCOCC1 [Example 156, 4-{4-[(1-cyclobutylpiperidin-4-yl)oxy]phenyl}-N-methyltetrahydro-2H-pyran-4-carboxamide] | 2 |
| CCNC(=O)C1(c2ccc(OC3CCN(C4CCC4)CC3)cc2)CCOCC1 [Example 160, 4-{4-[(1-cyclobutylpiperidin-4-yl)oxy]phenyl}-N-ethyltetrahydro-2H-pyran-4-carboxamide] | 1.5 |
| O=C(N1CCCC1)C1(c2ccc(OCCCN3CCCC3)cc2)CCOCC1 [Example 187, 1-(3-{4-[4-(pyrrolidin-1-ylcarbonyl)tetrahydro-2H-pyran-4-yl]phenoxy}propyl)pyrrolidine] | 7.3 |
| O=C(N1CCCCC1)C1(c2ccc(OCCCN3CCCC3)cc2)CCOCC1 [Example 188, 1-({4-[4-(3-pyrrolidin-1-ylpropoxy)phenyl]-tetrahydro-2H-pyran-4-yl}carbonyl)piperidine] | 6.8 |
| O=C(N1CCC1)C1(c2ccc(OCCCN3CCCC3)cc2)CCOCC1 [Example 189, 1-(3-{4-[4-(azetidin-1-ylcarbonyl)tetrahydro-2H-pyran-4-yl]phenoxy}propyl)pyrrolidine] | 14.3 |
| CCN(C)C(=O)C1(c2ccc(OCCCN3CCCC3)cc2)CCOCC1 [Example 190, N-ethyl-N-methyl-4-[4-(3-pyrrolidin-1-ylpropoxy)phenyl]tetrahydro-2H-pyran-4-carboxamide] | 2.4 |
| CN(C)C(=O)C1(c2ccc(OCCCN3CCCC3)cc2)CCOCC1 [Example 191, N,N-dimethyl-4-[4-(3-pyrrolidin-1-ylpropoxy)-phenyl]tetrahydro-2H-pyran-4-carboxamide] | 10.3 |
| c1ccc2c(c1)ncn2CC1(c2ccc(OCCCN3CCCC3)cc2)CCOCC1 [Example 196] | 0.6 |
| c1ccc(C2(c3ccc(OCCCN4CCCC4)cc3)CCOCC2)nc1 [Example 205, 2-{4-[4-(3-pyrrolidin-1-ylpropoxy)phenyl]tetrahydro-2H-pyran-4-yl}-pyridine] | 5.8 |
| c1ncc(C2(c3ccc(OCCCN4CCCC4)cc3)CCOCC2)o1 [Example 206, 5-{4-[4-(3-pyrrolidin-1-ylpropoxy)phenyl]tetrahydro-2H-pyran-4-yl}-1,3-oxazole] | 12.9 |
| CN(C)CC1(c2ccc(OCCCN3CCOCC3)cc2)CCOCC1 [Example 213, N,N-dimethyl-1-{4-[4-(3-morpholin-4-ylpropoxy)phenyl]tetrahydro-2H-pyran-4-yl}methanamine] | 2.6 |
| CC(C)N1CC(COc2ccc(C3(CN4CCOCC4)CCOCC3)cc2)C1 [Example 220, 4-[(4-{4-[(1-isopropylazetidin-3-yl)methoxy]phenyl}tetrahydro-2H-pyran-4-yl)methyl]morpholine] | 2.2 |
| c1cc2c(cn1)ncn2CC1(c2ccc(OCCCN3CCCC3)cc2)CCOCC1 [Example 247, 1-({4-[4-(3-pyrrolidin-1-ylpropoxy)phenyl]tetrahydro-2H-pyran-4-yl}methyl)-1H-imidazo[4,5-c]pyridine] | 3.9 |
| c1cnc2c(c1)ncn2CC1(c2ccc(OCCCN3CCCC3)cc2)CCOCC1 [Example 248, 3-({4-[4-(3-pyrrolidin-1-ylpropoxy)phenyl]tetrahydro-2H-pyran-4-yl}methyl)-3H-imidazo[4,5-b]pyridine] | 0.3 |
| c1cnc2ncn(CC3(c4ccc(OCCCN5CCCC5)cc4)CCOCC3)c2c1 [Example 249, 1-({4-[4-(3-pyrrolidin-1-ylpropoxy)phenyl]tetrahydro-2H-pyran-4-yl}methyl)-1H-imidazo[4,5-b]pyridine] | 9.7 |
| c1cc(NCC2(c3ccc(OCCCN4CCCC4)cc3)CCOCC2)cnn1 [Example 250, N-({4-[4-(3-pyrrolidin-1-ylpropoxy)phenyl]tetrahydro-2H-pyran-4-yl}methyl)pyridazin-4-amine] | 4.6 |
| CNCC1(c2ccc(OCCCN3CCOCC3)cc2)CCOCC1 [Example 254, N-methyl-1-{4-[4-(3-morpholin-4-ylpropoxy)phenyl]tetrahydro-2H-pyran-4-yl}methanamine] | 1.3 |
| c1c[nH]c(C2(c3ccc(OCCCN4CCCC4)cc3)CCOCC2)n1 [Example 266, 2-{4-[4-(3-pyrrolidin-1-ylpropoxy)phenyl]tetrahydro-2H-pyran-4-yl}-1H-imidazole] | 9.7 |
| c1cc(C2(CN3CCOCC3)CCOCC2)ccc1OCCCN1CCCOCC1 [Example 268, 4-(3-{4-[4-(morpholin-4-ylmethyl)tetrahydro-2H-pyran-4-yl]phenoxy}propyl)-1,4-oxazepane] | 6.5 |
| c1cc(C2(Cn3cnnc3)CCOCC2)ccc1OCCCN1CCCC1 [Example 272, 4-({4-[4-(3-pyrrolidin-1-ylpropoxy)phenyl]tetrahydro-2H-pyran-4-yl}methyl)-4H-1,2,4-triazole] | 10.8 |
| c1cc(C2(c3ccc(OCCCN4CCCC4)cc3)CCOCC2)ncn1 [Example 276, 4-{4-[4-(3-pyrrolidin-1-ylpropoxy)phenyl]tetrahydro-2H-pyran-4-yl}pyrimidine] | 6.2 |
